The subject of test [1] is Dendritic cells co-cultured with BCMA ADC treated NCI-H929 cells. Put plainly: IL-10 and IL-12p70 in co-culture supernatants (MSD kits). Type of test: cell-based, human. Here is the method:
Day 7 iDCs were co-cultured with J6M0 ADC enhanced antigen binding protein treated NCI-H929 cells at 1:1 ratio for 24 hours on 96 well plates. All cells were counted at the initiation of the co-culture and diluted with X-Vivo-15 media to a concentration of 7.5×10^5 cells/mL. 7.5×10^4 cells/well (100 μl) each of iDCS and pre-treated NCI-H929 cells were combined in each well on a 96 well plate. Co-cultured cells were incubated 37° C./5% CO2 for 24 hours. A flow cytometry panel consisting of CD1a, CD11c, CD40, CD80, CD83, CD86, HLA-DR, & CD14 was used to assess fresh, FcR blocked Dendritic Cell differentiation and maturation on the FACS Canto II. […]
Data analysis was performed in Flow Jo v7.6.5 for the flow cytometry panel and used either CD11c+ or HLA-DR+ cell gating to distinguish the dendritic Cells from the tumor cells. […] Data for the secreted IL-10 and IL-12p70 from supernatants in the co-culture assays w analyzed in MSD Discovery Workbench v4.0.12.
FIGS. 3A and 3B: IL-10 decreased in the supernatants from co-cultured Dendritic cells from two healthy human donors and BCMA ADC treated NCI-H929 Multiple Myeloma cells. IL-10 was measured in (a) untreated (no BCMA ADC) Dendritic cells alone and (b-f) Dendritic cells that were co-cultured with (b) untreated (no BCMA ADC), (c) IgG Control (10 μg/mL), (d) 0.1, (e) 1 and (f) 10 μg/mL BCMA ADC treated (48 hours) NCI-H929 cells. […]

In another test the test system is multiple myeloma. Put plainly: Phase 1 clinical trial in relapsed and refractory multiple myeloma patients. Type of test: in vivo, human. From the text:
Multiple myeloma (MM) is a disease that affects plasma cells and leads to devastating clinical features. MM is the second most common hematological malignancy and remains an incurable disease. Therefore, novel targeted therapies are in need.

Test [2] relates to CD4 and CD8 cells in PBMC. Description: IFNγ and IL-4 production by T cells upon anti-CD3/anti-CD28 stimulation in PBMC. Type of test: cell-based, human. The note with it: 48 and 72 hours. On the procedure: This study was repeated two times (n=2) with blood from two different donors. 100 μL PBMCs (1×10^6 cells/mL) in RPMI-1640 with 10% FBS were added into anti-CD3 antibody coated wells with or without soluble 0.5 μg/mL anti-CD28 antibody. […] Three technical replicates were included for each assay condition. At the end of the study, cells were transferred, washed, stained and analyzed by flow cytometry as described in section 3.1. For intracellular staining, cells were fixed by cytofix buffer (BD Biosciences, Catalog #554655) at room temperature for 20 minutes and permeablized by perm/wash buffer (BD Biosciences, catalog #554723) at room temperature for 30 minutes before staining with antibodies or isotype controls.
The raw percentage and MFI data for each marker at each concentration of BCMA ADC was compared to the corresponding IgG control in the statistical analysis. To account for the variability of the different blood donors, a linear mixed effect model was used to analyze the data. […]
For data reporting, the average percentage or average MFI value among three technical replicates was generated at each BCMA ADC concentration and the % difference values were calculated as: % difference=(Avg 916−Avg IgG)*100/Avg IgG, where Avg 916 and Avg IgG represent the average values of the BCMA ADC treatment group and the IgG control group, respectively. […]

In the next test the test system is CD4+ and CD8+ T cells. Put plainly: T cell proliferation upon anti-CD3/anti-CD28 stimulation (CFSE). The class given is cell-based, human. The settings on record: 96 hours; 3 donors. Here is the method: Fresh normal peripheral blood isolated CD4+ or CD8+ T cells were received and counted using a Beckman Coulter ViCell then centrifuged at 330 g for 7 minutes. Cells were then stained with Molecular Probes Cell Trace CFSE (cat #C34554) proliferation dye (5-10 μM) in PBS/0.5% BSA. Cells were incubated for 5 minutes on ice prior to a further incubation for 5 minutes on ice in cold RPMI 1640/10% FBS. Any free dye was removed by two further cell centrifugations at 300 g for 5 minutes. Cells were resuspended in complete media RPMI 1640/10% FBS/IL-2 (2.8 ng/mL). Cells were then seeded (10^5 cells/100 μL volume/well) in a 96 well tissue culture plates pre-coated with anti-CD3 (1 μg/mL) and anti-CD28 (1 μg/mL). […] After the 4 day incubation, cell supernatant was harvested and frozen at minus 80° C. and the cells were collected for flow cytometry staining. Analyzed using a CANTO II flow cytometer with 488 nm excitation and emission filters appropriate for fluorescein (FITC) for Cell Trace CFSE. FIG. 4D) Effect of BCMA ADC on proliferation of CD4+ and CD8+ T cells. CD4+ and CD8+ T cells stimulated with anti-CD3 and anti-CD28 antibodies in the presence or absence of various concentrations of BCMA ADC. After 96 hours cell proliferation was analyzed by flow cytometry. Data represent mean±SD from 3 different donors.

Consider GSK2857916, for which the IL-10 production entry in test [1] (0.1, 1, 10 μg/mL BCMA ADC) was “significant inhibitory effect”. Also, the IL-12p70 entry in test [1] (all conditions) was “below the detection limit”. In the test on multiple myeloma, this substance displayed an overall response rate of 60%. In test [2], the IFNγ production entry is on record as “no significant effect” and the IL-4 production entry is recorded as “no significant effect”. Also, the “proliferation of CD4+ and CD8+ T cells” value in the test with CD4+ and CD8+ T cells is given as “does not appear to have direct effects”.

Source of the values: US20220096650A1 (Glaxosmithkline Intellectual Property Development Limited, priority 2019, published 2022).
